Reference: US20140371165A1, “Identification of NSC23925 Isomers to Reverse Multidrug Resistance in Human Cancers” (priority 2012, published 2014)

What was measured:
[1] = test system: SW480TR; assay: MTT cytotoxicity assay and reversal of MDR in SW480TR; assay type: cell-based, human; details: Homo sapiens, 144 h, without NSC23925b, MTT, 6 days, read-out: IC50 of chemotherapy drug alone
Source text: (§1) A panel of parental cancer cell line and their daughter resistant cell lines, displaying MDR phenotype were used in this study. Human ovarian cancer cell line SKOV-3, breast cancer cell line MCF-7 and colon cancer cell line SW480, the osteosarcoma cell line U-2OS, KHOS, uterine sarcoma cell line MESSA and its doxorubicin selected drug resistant cell line MESSA/Dx5, non-small cell lung cancer cell line H-69 and its doxorubicin selected drug resistant cell line H-69AR (overexpress MRP1) were obtained from the ATCC (Rockville, Md.). Dr. Efstathios Gonos (Institute of Biological Research & Biotechnology, Athens, Greece) provided the doxorubicin resistant U-2OS R2 (referred in the text below as U-2OSDR), KHOS R2 cell lines. Dr. Erasmus Schneider (Wadsworth Center, Albany) provided the mitoxantrane resistant breast cancer MCF-7/MX (overexpress BCRP) cell line. All the cell lines were cultured in RPMI 1640 (Invitrogen, Carlsbad, Calif.) supplemented with 10% fetal bovine serum, 100-units/ml penicillin and 100 μg/ml streptomycin (Invitrogen). Cells were incubated at 37° C. in 5% CO2-95% air atmosphere and passaged when near confluent monolayers were achieved using 2% trypsin-EDTA solution. […] The fresh chemotherapy drugs were obtained from the pharmacy at the Massachusetts General Hospital and stored at −20° C.
(§2) To evaluate for reversal of Pgp-mediated MDR, SKOV-3TR, MCF-7adr and SW480TR cell lines were seeded into 96-well tissue culture plate at 2,000 cells per well with varying concentrations of chemotherapy drugs and NSC23925b for 6 days. Cell proliferation IC50 (concentration required for 50% inhibition) and MDR reversal IC50 were determined from dose-response curves carried out in triplicate in 96-well plate. Fold of reverse resistance for individual drugs were defined as the IC50 of MDR cells without NSC23925b treatment divided by the IC50 of MDR cells treated with NSC23925b. […] Drug cytotoxicity was assessed in vitro using the MTT assay as previously described. […] Response curves were fitted with use of GraphPad PRISM 4 software (GraphPad Software).
(§3) MCF-7adr and SW480TR cells were treated with paclitaxel (FIGS. 2A-B), doxorubicin (FIGS. 2C-D) or mitoxantrane (FIGS. 2E-F) and NSC23925b in RPMI1640 complete media at the indicated concentrations. The relative sensitivity of each line to the indicated drugs was determined by MTT analysis 6 days post-treatment.

[2] = test system: MCF-7adr; assay: MTT cytotoxicity assay and reversal of MDR in MCF-7adr; assay type: cell-based, human; details: Homo sapiens, NCI/ADR-RES, 144 h, without NSC23925b, MTT, 6 days, read-out: IC50 of chemotherapy drug alone
Source text: as §1, §2, §3

[3] = test system: SKOV-3TR; assay: MTT cytotoxicity assay and reversal of MDR in SKOV-3TR; assay type: cell-based, human; details: for IC50: Homo sapiens, SKOV3TR, 144 h, without NSC23925b, MTT, 6 days, read-out: IC50 of chemotherapy drug alone; for potency of isomer on reversing drug resistance: with paclitaxel, MTT 6 days post-treatment
Source text: as §1, §2
Structure and activity relationship (SAR) of the four NSC23925 isomers for reversing MDR were evaluated in human ovarian cancer MDR cell line SKOV-3TR by MTT assay (FIGS. 1A-D). Cells were treated with the paclitaxel and NSC23925 diastereomers NSC23925a (FIG. 1A), NSC23925b (FIG. 1B), NSC23925c (FIG. 1C) and NSC23925d (FIG. 1D) in RPMI1640 complete media at the indicated concentrations. The relative sensitivity of each line to paclitaxel was determined by MTT analysis 6 days post-treatment.

[4] = test system: SKOV-3TR xenograft tumors; assay: SKOV-3TR xenograft tumor growth in nude mice; details: alone; i.p. twice a week for two weeks; paclitaxel 20 mg/kg or NSC23925b 40 mg/kg
Protocol: The Crl:SHO-Prkdc^SCIDHr^hr nude female mice at approximately 3-4 weeks of age were purchased from The Charles River Laboratories (Ann Arbor, Mich.). Animal studies were carried out with protocols approved by the Massachusetts General Hospital Subcommittee on Research Animal Care (SRAC). To determine the effect of NSC23925b on paclitaxel sensitivity in xenograft model, 5×10^6 SKOV-3TR cells were injected subcutaneously with matrigel (BD Biosciences, San Jose, Calif.) on day one. Two weeks after injection, the mice were divided into four groups to start the treatments. Group one was received intraperitoneal (i.p) injection with normal saline, group two with paclitaxel (20 mg/kg), group three with NSC23925b (40 mg/kg). […] All four groups were treated twice a week for two weeks. The health of the mice and evidence of tumor growth were examined daily. Tumors were measured twice a week with a digital caliper. Tumor volume (mm^3) was calculated as (W^2×L)/2, where W is width and L is length. The curve of tumor growth was drawn according to tumor volume by using of GraphPad PRISM 4 software.
To further evaluate the effects of NSC23925b and paclitaxel combination therapy on the tumor growth of resistant cells, the growth of xenograft tumors were examined. A well-characterized ovarian cancer MDR cell line SKOV-3TR was chosen for in vivo studies. […] Tumors were measured twice a week with a digital caliper. Tumor volume (mm^3) was calculated as (W^2×L)/2, where W is width and L is length (FIG. 5A). Representative images of dissected tumor tissues from treated nude mice.

[5] = Solubility in organic solvents; assay type: physicochemical; details: volume of methanol for 5 milligram

| 5 milligram solubility in methanol [5] | Compound | IC50 [1] | IC50 [2] | IC50 [3] | effect on paclitaxel resistant tumor cell growth, single agent [4] | potency of isomer on reversing drug resistance [3] |
| --- | --- | --- | --- | --- | --- | --- |
| – | CC(=O)O[C@H]1C(=O)[C@@]2(C)[C@H]([C@H](OC(=O)c3ccccc3)[C@]3(O)C[C@H](OC(=O)[C@H](O)[C@@H](NC(=O)c4ccccc4)c4ccccc4)C(C)=C1C3(C)C)[C@]1(OC(C)=O)CO[C@@H]1C[C@@H]2O [Paclitaxel, reference compound] | 120 ± 80 nM | 620 ± 120 nM | 570 ± 30 nM | no significant effects | – |
| 650 µL | COc1ccc(-c2cc([C@@H](O)[C@@H]3CCCCN3)c3ccccc3n2)cc1.Cl [NSC23925a, (2-(4-methoxyphenyl)quinolin-4-yl)(piperidin-2-yl)methanol hydrochloride] | – | – | – | – | least potency |
| – | O=C1c2c(O)ccc(O)c2C(=O)c2c(NCCNCCO)ccc(NCCNCCO)c21 [Mitoxantrane, reference compound] | 270 ± 30 nM | 320 ± 60 nM | 460 ± 60 nM | – | – |
| 150 µL | COc1ccc(-c2cc([C@H](O)[C@@H]3CCCCN3)c3ccccc3n2)cc1.Cl (single isomer, unassigned) [NSC23925d, (2-(4-methoxyphenyl)quinolin-4-yl)(piperidin-2-yl)methanol hydrochloride] | – | – | – | – | modest but lesser activity |
| 150 µL | COc1ccc(-c2cc([C@@H](O)[C@H]3CCCCN3)c3ccccc3n2)cc1.Cl (single isomer, unassigned) [NSC23925c, (2-(4-methoxyphenyl)quinolin-4-yl)(piperidin-2-yl)methanol hydrochloride] | – | – | – | – | modest but lesser activity |
| – | COc1cccc2c1C(=O)c1c(O)c3c(c(O)c1C2=O)C[C@@](O)(C(=O)CO)C[C@@H]3O[C@H]1C[C@H](N)[C@H](O)[C@H](C)O1 [Doxorubicin, reference compound] | 840 ± 160 nM | 3800 ± 120 nM | 38500 ± 2600 nM | – | – |
